How the values were obtained:
human CTPS1 = biological target: T1, human CTPS1 (Homo sapiens, UniProt P17812); test: Human CTPS1 enzyme inhibition (ADP-Glo Max assay); assay type: biochemical; settings: 25° C., read-out: Human CTPS1 Enzyme Inhibition IC50, grouped by potency range
T1 construct: FLAG (GG linker + DYKDDDDK); His8 (GG linker + HHHHHHHH); purchased Proteros biostructures GmbH
T1 sequence (P17812 1-591): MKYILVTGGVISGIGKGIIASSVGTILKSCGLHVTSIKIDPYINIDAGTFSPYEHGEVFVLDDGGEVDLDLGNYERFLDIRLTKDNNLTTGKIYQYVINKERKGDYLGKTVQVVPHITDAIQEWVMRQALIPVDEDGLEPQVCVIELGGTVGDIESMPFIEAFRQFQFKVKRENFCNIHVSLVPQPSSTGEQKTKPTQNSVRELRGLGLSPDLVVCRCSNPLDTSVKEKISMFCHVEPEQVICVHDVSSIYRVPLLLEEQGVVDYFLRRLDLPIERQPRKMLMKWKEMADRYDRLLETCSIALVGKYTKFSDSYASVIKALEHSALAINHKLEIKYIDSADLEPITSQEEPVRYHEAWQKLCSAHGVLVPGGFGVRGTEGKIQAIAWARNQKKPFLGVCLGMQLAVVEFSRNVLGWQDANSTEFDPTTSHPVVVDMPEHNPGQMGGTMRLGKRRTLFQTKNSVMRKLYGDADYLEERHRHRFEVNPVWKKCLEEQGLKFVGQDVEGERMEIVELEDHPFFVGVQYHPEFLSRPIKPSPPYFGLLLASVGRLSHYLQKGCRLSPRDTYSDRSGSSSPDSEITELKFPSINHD
Protocol: The enzyme inhibitory activities of compounds invented against the target of interest were determined using the ADP-Glo™ Max assay (Promega, UK). Assays for human CTPS1 were performed in 1× assay buffer containing 50 mM Tris, 10 mM MgCl2, 0.01% Tween-20, pH to 8.0 accordingly. Finally, immediately before use, L-cysteine was added to the 1× assay buffer to a final concentration of 2 mM. All reagents are from Sigma-Aldrich unless specified otherwise.
Human full length active C-terminal FLAG-Hiss-tag CTPS1 (UniProtKB—P17812, CTPS1[1-591]-[…] (CTPS1[1-591]-SEQ ID NO: 1)) was obtained from Proteros biostructures GmbH.
3× human CTPS1 protein was prepared in 1× assay buffer to the final working protein concentration required for the reaction. A 2 uL volume per well of 3× human CTPS1 protein was mixed with 2 uL per well of 3× test compound (compound prepared in 1× assay buffer to an appropriate final 3× compound concentration respective to the concentration response curve designed for the compounds under test) for 10 minutes at 25° C. The enzymatic reaction was then initiated by addition of a 2 uL per well volume of a pre-mixed substrate mix (UltraPure ATP from ADP-GIo™ Max kit (0.31 mM), GTP (0.034 mM), UTP (0.48 mM) and L-glutamine (0.186 mM)) and the mixture was incubated for an appropriate amount of time within the determined linear phase of the reaction at 25° C. under sealed plate conditions with constant agitation at 500 revolutions per minute (rpm). ADP-GIo™ Max reagent was added for 60 minutes (6 μL per well) and subsequently ADP-GIo™ Max development reagent was added for 60 minutes (12 uL per well) prior to signal detection in a microplate reader (EnVision® Multilabel Reader, Perkin Elmer). Following each reagent addition over the course of the assay, assay plates were pulse centrifuged for 30 seconds at 500 rpm.
In all cases, the enzyme converts ATP to ADP and the ADP-Glo™ Max reagent subsequently depletes any remaining endogenous ATP in the reaction system. The ADP-Glo™ Max detection reagent converts the ADP that has been enzymatically produced back into ATP and using ATP as a substrate together with luciferin for the enzyme luciferase, light is generated which produces a detectable luminescence. […] The percentage inhibition produced by each concentration of compound was calculated using the equation shown below: […]
(§1) Percentage inhibition was then plotted against compound concentration, and the 50% inhibitory concentration (IC50) was determined from the resultant concentration-response curve.

Human CTPS1 Versus CTPS2 = test: RapidFire/MS-based enzyme selectivity assay, human CTPS1 versus CTPS2; assay type: biochemical; settings: RapidFire/MS IC50s
Protocol: Human CTPS1 Versus CTPS2 Selectivity Assessment by RapidFire/MS Analysis.
The enzyme inhibitory activities against each target isoform of interest may be determined for the compounds of the invention using an optimised RapidFire high-throughput mass spectrometry (RF/MS) assay format. RF/MS assays for both human CTPS1 and CTPS2 may be performed in assay buffer consisting of 50 mM HEPES (Merck), 20 mM MgCl2, 5 mM KCl, 1 mM DTT, 0.01% Tween-20, pH to 8.0 accordingly. Human full-length active C-terminal FLAG-His-tag CTPS1 (UniProtKB—P17812, CTPS1[1-591]-[…] (CTPS1[1-591]-SEQ ID NO: 1)) may be obtained from Proteros biostructures GmbH. Human full length active C-terminal FLAG-His-Avi tagged CTPS2 (UniProtKB—Q9NRF8, CTPS2 [1-586]—[…] (CTPS2 [1-586]-SEQ ID NO: 2)) may be obtained from Harker Bio.
Human CTPS (1 or 2) protein may be prepared in 1× assay buffer to the final working protein concentration required for the reaction. A 2 uL volume per well of 2×CTPS (1 or 2) protein may be mixed with 40 nL of compound using acoustic (ECHO) delivery and incubated for 10 minutes at 25° C. Each isoform enzymatic reaction may be subsequently initiated by addition of 2 uL per well of a 2× substrate mix in assay buffer. For hCTPS1: ATP (0.3 mM), UTP (0.2 mM), GTP (0.07 mM) and L-glutamine (0.1 mM). For hCTPS2: ATP (0.1 mM), UTP (0.04 mM), GTP (0.03 mM) and L-glutamine (0.1 mM). Each mixture may be incubated for an appropriate amount of time per isoform within the determined linear phase of the reaction at 25° C. A 60 uL volume of stop solution (1% formic acid with 0.5 uM ^13C9-^15N3-CTP in H2O) may be added and the plate immediately heat-sealed and centrifuged for 10 minutes at 4,000 rpm. Following centrifugation, plates may be loaded onto the Agilent RapidFire microfluidic solid phase extraction system coupled to an API4000 triple quadrupole mass spectrometer (RF/MS) for analysis.
In all cases, the enzyme converts UTP to CTP. Highly specific and sensitive multiple reaction monitoring (MRM) MS methods may be optimised for the detection of the enzymatic reaction product, CTP, and the stable isotope labelled product standard ^13C-^15N-CTP. Readout for data analysis may be calculated as the ratio between the peak area of the product CTP and the internal standard […]. For data reporting, the following equation may be used: […]
For each screening plate, the means of the negative (DMSO) and positive control values were used for the calculation of the respective assay window (S/B) and Z′ values. The median of the respective control values was used for calculation of percent inhibition according to the following equation: […]
as §1
Fold selectivity between CTPS1 and CTPS2 was subsequently calculated according to the following equation: […]

## CCOc1cncc(-c2ccc(NC(=O)C3(c4ccnc(NS(=O)(=O)C5CC5)n4)CCN(C(C)C)CC3)nc2)n1 [P232, 4-(2-(Cyclopropanesulfonamido)pyrimidin-4-yl)-N-(5-(6-ethoxypyrazin-2-yl)pyridin-2-yl)-1-isopropylpiperidine-4-carboxamide]
Human CTPS1
  IC50: 100 to 1000 nM
Human CTPS1 Versus CTPS2
  Fold selectivity between CTPS1 and CTPS2 (CTPS1): +++ (>60 fold (+++))

## CCOc1cncc(-c2ccc(C(=O)NC3(c4ccnc(NS(=O)(=O)C5CC5)n4)CCOCC3)nc2)n1 [P249, N-(4-(2-(cyclopropanesulfonamido)pyrimidin-4-yl)tetrahydro-2H-pyran-4-yl)-5-(6-ethoxypyrazin-2-yl)picolinamide]
Human CTPS1
  IC50: 100 to 1000 nM
Human CTPS1 Versus CTPS2
  Fold selectivity between CTPS1 and CTPS2 (CTPS1): +++ (>60 fold (+++))

## CCOc1cncc(-c2ccc(NC(=O)C3(c4ccnc(NS(=O)(=O)C5CC5)n4)CCN(C(C)=O)CC3)nc2)n1 [P234, 1-Acetyl-4-(2-(cyclopropanesulfonamido)pyrimidin-4-yl)-N-(5-(6-ethoxypyrazin-2-yl)pyridin-2-yl)piperidine-4-carboxamide]
Human CTPS1
  IC50: ≤ 100 nM
Human CTPS1 Versus CTPS2
  Fold selectivity between CTPS1 and CTPS2 (CTPS1): +++ (>60 fold (+++))

## CCOc1cncc(-c2ccc(NC(=O)C3(c4ccnc(NS(C)(=O)=O)n4)CCOCC3)nc2)n1 [P236, N-(5-(6-ethoxypyrazin-2-yl)pyridin-2-yl)-4-(2-(methylsulfonamido)pyrimidin-4-yl)tetrahydro-2H-pyran-4-carboxamide]
Human CTPS1
  IC50: ≤ 100 nM
Human CTPS1 Versus CTPS2
  Fold selectivity between CTPS1 and CTPS2 (CTPS1): +++ (>60 fold (+++))

## CCOc1cncc(-c2ccc(NC(=O)C3(c4ccnc(NS(=O)(=O)C5CC5)n4)CCN(C)CC3)nc2)n1 [P231, 4-(2-(Cyclopropanesulfonamido)pyrimidin-4-yl)-N-(5-(6-ethoxypyrazin-2-yl)pyridin-2-yl)-1-methylpiperidine-4-carboxamide]
Human CTPS1
  IC50: 100 to 1000 nM
Human CTPS1 Versus CTPS2
  Fold selectivity between CTPS1 and CTPS2 (CTPS1): +++ (>60 fold (+++))

## CCOc1cncc(-c2ccc(NC(=O)C3(c4ccnc(NS(=O)(=O)C5(C)CC5)n4)CCOCC3)nc2)n1 [P247, N-(5-(6-ethoxypyrazin-2-yl)pyridin-2-yl)-4-(2-((1-methylcyclopropane)-1-sulfonamido)pyrimidin-4-yl)tetrahydro-2H-pyran-4-carboxamide]
Human CTPS1
  IC50: 100 to 1000 nM
Human CTPS1 Versus CTPS2
  Fold selectivity between CTPS1 and CTPS2 (CTPS1): +++ (>60 fold (+++))

## CCOc1cncc(-c2ccc(NC(=O)C3(c4nccc(NS(=O)(=O)C5CC5)n4)CCOCC3)nc2)n1 [P243, 4-(4-(cyclopropanesulfonamido)pyrimidin-2-yl)-N-(5-(6-ethoxypyrazin-2-yl)pyridin-2-yl)tetrahydro-2H-pyran-4-carboxamide]
Human CTPS1
  IC50: ≤ 100 nM
Human CTPS1 Versus CTPS2
  Fold selectivity between CTPS1 and CTPS2 (CTPS1): +++ (>60 fold (+++))

## CCOc1cncc(-c2ccc(NC(=O)C3(c4ccnc(NS(=O)(=O)C5CC5)n4)CCOCC3)c(C)c2)n1 [P240, 4-(2-(cyclopropanesulfonamido)pyrimidin-4-yl)-N-(4-(6-ethoxypyrazin-2-yl)-2-methylphenyl)tetrahydro-2H-pyran-4-carboxamide]
Human CTPS1
  IC50: ≤ 100 nM
Human CTPS1 Versus CTPS2
  Fold selectivity between CTPS1 and CTPS2 (CTPS1): + (2-30 fold (+))

From patent US12466810B2, “N-(5-(6-ethoxypyrazin-2-yl)pyridin-2-yl)-4-(2-(methylsulfonamido)pyrimidin-4-yl) tetrahydro-2H-pyran-4-carboxamide derivatives and related compounds as human CTPS1 inhibitors for the treatment of proliferative diseases” (Step Pharma S.A.S., priority 2019, dated 2025)
